Data as given in patent publication US11608335B2, “Somatostatin modulators and uses thereof” (CRINETICS PHARMACEUTICALS, INC., priority 2018, dated 2023).
pEC50: −log10 of the molar value. Read-outs that look alike come from different tables or passages of the source.

How the values were obtained:
[1] = biological target: T1, human somatostatin receptor subtype 2 (Homo sapiens, UniProt P30874); test: cAMP assay for SST2R (inhibition of cAMP via human SST2 receptor); assay type: cell-based; conditions: Table B, read-out: SST2 potency
T1 construct: expressed in transfected cells
T1 sequence (P30874 whole entry): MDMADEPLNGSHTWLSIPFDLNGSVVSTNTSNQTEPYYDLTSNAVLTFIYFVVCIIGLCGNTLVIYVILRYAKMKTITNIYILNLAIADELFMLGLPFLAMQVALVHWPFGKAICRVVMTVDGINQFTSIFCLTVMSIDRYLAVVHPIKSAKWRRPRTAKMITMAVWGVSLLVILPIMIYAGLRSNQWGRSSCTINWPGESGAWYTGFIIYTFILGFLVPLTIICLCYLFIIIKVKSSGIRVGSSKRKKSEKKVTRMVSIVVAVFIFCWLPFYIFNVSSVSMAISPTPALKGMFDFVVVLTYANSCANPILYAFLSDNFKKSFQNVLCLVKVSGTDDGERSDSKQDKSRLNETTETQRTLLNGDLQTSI
From the text: cAMP Assay Protocol for SST2R:

[2] = biological target: T2, human somatostatin receptor subtype 3 (Homo sapiens, UniProt P32745); test: cAMP assay for SST3R (inhibition of cAMP via human SST3 receptor); assay type: cell-based; conditions: from inhibition of cAMP via human SST5 receptor and human SST3 receptor
T2 construct: expressed in transfected cells
T2 sequence (P32745 whole entry): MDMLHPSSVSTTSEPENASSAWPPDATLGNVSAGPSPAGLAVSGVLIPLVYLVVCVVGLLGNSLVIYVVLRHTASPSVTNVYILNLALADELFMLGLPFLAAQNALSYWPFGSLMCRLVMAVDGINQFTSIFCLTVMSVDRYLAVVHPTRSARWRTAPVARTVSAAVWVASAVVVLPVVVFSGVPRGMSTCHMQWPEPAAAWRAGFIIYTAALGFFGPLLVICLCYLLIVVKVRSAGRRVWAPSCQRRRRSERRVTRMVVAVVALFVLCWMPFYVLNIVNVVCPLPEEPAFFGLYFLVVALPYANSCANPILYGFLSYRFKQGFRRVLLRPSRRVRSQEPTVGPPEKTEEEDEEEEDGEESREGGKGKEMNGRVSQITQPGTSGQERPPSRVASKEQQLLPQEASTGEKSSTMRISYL
From the text: cAMP Assay Protocol for SST3R:

[3] = Liver microsomal stability assay; assay type: in vitro ADME; conditions: both sexes, human, pooled human liver microsomes; read-out: HLM Stability t½
Description: Example B-2: Liver Microsomal Stability Assay Protocol
The in vitro stabilities of compounds of interest were determined for various species using pooled male and female human, pooled male Sprague-Dawley rat, pooled male Cynomolgus monkey, and pooled male Beagle dog liver microsomes at microsomal protein concentrations of 0.5 mg/mL. Incubations were carried out in a potassium phosphate buffer (50 mM). The NADPH-generating system was composed of NADP+ (1 mM), magnesium chloride (3 mM), EDTA (1 mM), glucose-6-phosphate (5 mM) and glucose-6-phosphate dehydrogenase (1 Unit/mL) for all experiments. Compounds of interest in DMSO/acetonitrile were added to achieve a final incubation concentration of 1 μM (final DMSO content was 0.1% v/v and final acetonitrile content was 0.9%). The final incubation volume was 400 μL. Incubations were conducted at 37° C. for 0, 5, 10, 20, 40 and 60 minutes in a shaking water bath and terminated by removing 50 μL of incubation mixture and adding to 100 μL of ice cold acetonitrile containing internal standard. Following precipitation by centrifugation at 3500 rpm and 4° C. for 30 minutes, compounds of interest and internal standard were analyzed in the resultant supernatant using a multiple reaction monitoring (MRM) LC-MS/MS method. MS conditions were optimized for each analyte.
(§1) Table E illustrates representative human liver microsomal stability and time dependent CYP2D6 inhibition (TDI) of exemplary compounds.

[4] = biological target: T3, Cytochrome P450 (CYP) 2D6 enzyme (Homo sapiens, UniProt P10635); test: Cytochrome P450 (CYP) 2D6 enzyme time dependent inhibition (TDI) assay; assay type: in vitro ADME; conditions: human liver microsomes
T3 construct: using pooled male and female human liver microsomes; from tissue; host or cells: pooled male and female human liver microsomes
T3 sequence (P10635 whole entry): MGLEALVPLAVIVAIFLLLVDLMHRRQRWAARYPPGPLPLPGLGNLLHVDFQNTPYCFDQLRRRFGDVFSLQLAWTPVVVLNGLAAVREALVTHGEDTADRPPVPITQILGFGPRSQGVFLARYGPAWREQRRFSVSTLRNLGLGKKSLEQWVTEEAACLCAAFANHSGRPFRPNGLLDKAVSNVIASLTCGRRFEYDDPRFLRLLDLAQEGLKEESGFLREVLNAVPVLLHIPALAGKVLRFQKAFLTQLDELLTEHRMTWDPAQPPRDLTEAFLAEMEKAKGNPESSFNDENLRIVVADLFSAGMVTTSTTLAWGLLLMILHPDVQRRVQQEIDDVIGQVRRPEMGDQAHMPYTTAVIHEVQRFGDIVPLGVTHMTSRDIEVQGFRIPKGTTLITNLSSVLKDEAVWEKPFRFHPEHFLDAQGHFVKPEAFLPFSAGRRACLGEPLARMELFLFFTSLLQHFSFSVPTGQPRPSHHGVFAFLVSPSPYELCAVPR
Description: Example B-3: Cytochrome P450 (CYP) 2D6 Enzyme Time Dependent Inhibition (TDI) Assay Protocol
The NADPH-generating system mix was composed of potassium phosphate buffer pH 7.4 (50 mM), NADP+ (1 mM), magnesium chloride (3 mM), EDTA (1 mM), glucose-6-phosphate (5 mM), glucose-6-phosphate dehydrogenase (1 Unit/mL), human liver microsomes (0.1 mg/mL) and water. Compounds of interest in DMSO serial diluted to six different concentrations (final DMSO content of 0.1% v/v) were added to the NADPH-generating system. CYP 2D6 substrate Dextromethorphan was added at a final incubation concentration of 5 μM. The final incubation volume was 200 μL. Incubations were conducted at 37° C. for 10 minutes in a shaking water bath to evaluate the drug candidates as […] of CYP 2D6. In a separate test plate, drug candidates were pre-incubated at 37° C. for 30 minutes in a shaking water bath in NADPH-generating system mix in the absence of Dextromethorphan substrate to allow for the formation of metabolites. This plate was removed from the water bath and placed on ice for 5 minutes. Dextromethorphan substrate was then added and the plate was incubated at 37° C. for 10 minutes in a shaking water bath to determine if any metabolites formed during the 30 minute pre-incubation inhibit the CYP 2D6 enzyme. All incubations were terminated by removing 50 μL of incubation mixture and adding to 200 μL of ice cold acetonitrile containing internal standard. Following precipitation by centrifugation at 3500 rpm and 4° C. for 30 minutes, the resultant supernatant were analyzed by using a multiple reaction monitoring (MRM) LC-MS/MS method detecting for internal standard and the CYP 2D6 enzyme mediated Dextromethorphan O-demethylation metabolite Dextrorphan and IC50 values were determined.
as §1

[5] = biological target: human somatostatin receptor subtype 5 (Homo sapiens, UniProt P35346); test: cAMP assay for SST5R (inhibition of cAMP via human SST5 receptor); conditions: for Fold selectivity for SST5 vs SST2: SST5 over SST2, class symbols
human somatostatin receptor subtype 5, sequence (P35346 whole entry): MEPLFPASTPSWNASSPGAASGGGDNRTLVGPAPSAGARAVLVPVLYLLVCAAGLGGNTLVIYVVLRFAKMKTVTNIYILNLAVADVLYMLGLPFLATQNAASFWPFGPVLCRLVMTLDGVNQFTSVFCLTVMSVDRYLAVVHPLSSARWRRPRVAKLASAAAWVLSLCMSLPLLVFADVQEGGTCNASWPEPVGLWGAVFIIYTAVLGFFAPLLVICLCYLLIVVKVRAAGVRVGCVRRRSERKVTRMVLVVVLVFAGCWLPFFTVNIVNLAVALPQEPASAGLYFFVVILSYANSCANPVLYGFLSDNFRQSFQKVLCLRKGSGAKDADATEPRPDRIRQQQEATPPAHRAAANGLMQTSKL

[6] = biological target: T4, human somatostatin receptor subtype 4 (Homo sapiens, UniProt P31391); test: cAMP assay for hSST4R (inhibition of cAMP via human SST4 receptor); assay type: cell-based; conditions: from inhibition of cAMP via human SST5 receptor and human SST4 receptor
T4 construct: expressed in transfected cells
T4 sequence (P31391 whole entry): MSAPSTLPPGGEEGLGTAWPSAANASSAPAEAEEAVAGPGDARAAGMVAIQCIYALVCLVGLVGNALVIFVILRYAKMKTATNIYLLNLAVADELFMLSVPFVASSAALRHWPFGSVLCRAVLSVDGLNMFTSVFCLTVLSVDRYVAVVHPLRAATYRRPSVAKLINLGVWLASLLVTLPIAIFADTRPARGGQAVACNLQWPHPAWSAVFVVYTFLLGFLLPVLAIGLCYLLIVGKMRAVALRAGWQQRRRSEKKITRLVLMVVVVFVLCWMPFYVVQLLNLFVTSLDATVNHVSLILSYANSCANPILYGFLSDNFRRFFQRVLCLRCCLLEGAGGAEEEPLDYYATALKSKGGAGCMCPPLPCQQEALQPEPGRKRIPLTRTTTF
From the text: cAMP Assay Protocol hSST4R:

[7] = t = 0 min pre-incubation, read-out: CYP2D6 inhibition, IC50 (μM) t = 0 min
[8] = t = 30 min pre-incubation, read-out: CYP2D6 inhibition, IC50 (μM) t = 30 min
[9] = read-out: SST5 potency, inhibition of cAMP via human SST5 receptor, Table B

Cc1ccnc2[nH]c(-c3cncc(-c4ccc(F)c(C#N)c4)c3N3CC[C@](C)(N)C3)nc12 [Compound 2-154, 5-{4-[(3S)-3-amino-3-methylpyrrolidin-1-yl]-5-{7-methyl-1H-imidazo[4,5-b]pyridin-2-yl}pyridin-3-yl}-2-fluorobenzonitrile]
pEC50 [1]: 7.00 to 8.00
Fold selectivity for SST5 vs SST3 [2]: 118 fold
half-life at 1 μM [3]: > 11.6 h
IC50 [4, 7]: > 10 µM
IC50 [4, 8]: > 10 µM
pEC50 [5]: > 8.00
Fold selectivity for SST5 vs SST2 [5]: ++ (++=100 to 499)
pEC50 [5, 9]: > 8.00

Cc1ccnc2nc(-c3cncc(-c4ccc(F)c(Cl)c4)c3N3CC[C@](C)(N)C3)[nH]c12 [Compound 2-192, (3S)-1-[3-(3-chloro-4-fluorophenyl)-5-{7-methyl-1H-imidazo[4,5-b]pyridin-2-yl}pyridin-4-yl]-3-methylpyrrolidin-3-amine]
pEC50 [1]: 7.00 to 8.00
Fold selectivity for SST5 vs SST3 [2]: 18 fold
half-life at 1 μM [3]: 1.65 h
IC50 [4, 7]: 4.2 µM
IC50 [4, 8]: 4.7 µM
pEC50 [5]: > 8.00
Fold selectivity for SST5 vs SST2 [5]: ++ (++=100 to 499)
pEC50 [5, 9]: > 8.00

COc1cc(-c2cncc(-c3nc4nccc(C)c4[nH]3)c2N2CC[C@](C)(N)C2)ccc1F [Compound 2-189, (3S)-1-[3-(4-fluoro-3-methoxyphenyl)-5-{7-methyl-1H-imidazo[4,5-b]pyridin-2-yl}pyridin-4-yl]-3-methylpyrrolidin-3-amine]
pEC50 [1]: 7.00 to 8.00
Fold selectivity for SST5 vs SST3 [2]: 27 fold
half-life at 1 μM [3]: > 11.6 h
IC50 [4, 7]: > 10 µM
IC50 [4, 8]: > 10 µM
pEC50 [5]: > 8.00
Fold selectivity for SST5 vs SST2 [5]: ++ (++=100 to 499)
pEC50 [5, 9]: > 8.00

Cc1ccc(F)c2nc(-c3cncc(-c4cccc(C#N)c4)c3N3CC[C@H](N)C3)[nH]c12 [Compound 2-101, 3-{4-[(3S)-3-aminopyrrolidin-1-yl]-5-(7-fluoro-4-methyl-1H-1,3-benzodiazol-2-yl)pyridin-3-yl}benzonitrile]
pEC50 [1]: 6.00 to 7.00
Fold selectivity for SST5 vs SST3 [2]: 42 fold
Fold selectivity for SST5 vs SST4 [6]: 11 fold
pEC50 [5]: > 8.00
Fold selectivity for SST5 vs SST2 [5]: +++ (+++=≥500)
pEC50 [5, 9]: > 8.00

C[C@]1(N)CCN(c2c(-c3ccc(F)c(C#N)c3)cncc2-c2nc3cccc(C#N)c3[nH]2)C1 [Compound 2-171, 2-{4-[(3S)-3-amino-3-methylpyrrolidin-1-yl]-5-(3-cyano-4-fluorophenyl)pyridin-3-yl}-1H-1,3-benzodiazole-7-carbonitrile]
pEC50 [1]: 6.00 to 7.00
Fold selectivity for SST5 vs SST3 [2]: 183 fold
Fold selectivity for SST5 vs SST4 [6]: 18 fold
pEC50 [5]: > 8.00
Fold selectivity for SST5 vs SST2 [5]: +++ (+++=≥500)
pEC50 [5, 9]: > 8.00

Cc1ccnc2nc(-c3cncc(-c4ccc(F)c(C(F)(F)F)c4)c3N3CC[C@](C)(N)C3)[nH]c12 [Compound 2-191, (3S)-1-{3-[4-fluoro-3-(trifluoromethyl)phenyl]-5-{7-methyl-1H-imidazo[4,5-b]pyridin-2-yl}pyridin-4-yl}-3-methylpyrrolidin-3-amine]
pEC50 [1]: 6.00 to 7.00
Fold selectivity for SST5 vs SST3 [2]: 24 fold
half-life at 1 μM [3]: 2.32 h
IC50 [4, 7]: 5.7 µM
IC50 [4, 8]: 5.1 µM
pEC50 [5]: > 8.00
Fold selectivity for SST5 vs SST2 [5]: +++ (+++=≥500)
pEC50 [5, 9]: > 8.00

Cc1cccc2[nH]c(-c3cncc(-c4cc(F)cc(C#N)c4)c3N3CC[C@H](N)C3)nc12 [Compound 2-34, 3-{4-[(3S)-3-aminopyrrolidin-1-yl]-5-(4-methyl-1H-1,3-benzodiazol-2-yl)pyridin-3-yl}-5-fluorobenzonitrile]
half-life at 1 μM [3]: > 11.6 h
IC50 [4, 7]: > 10 µM
IC50 [4, 8]: > 10 µM

Cc1ccnc2nc(-c3cncc(-c4ccc(F)c(F)c4)c3N3CC[C@](C)(N)C3)[nH]c12 [Compound 2-190, (3S)-1-[3-(3,4-difluorophenyl)-5-{7-methyl-1H-imidazo[4,5-b]pyridin-2-yl}pyridin-4-yl]-3-methylpyrrolidin-3-amine]
pEC50 [1]: 7.00 to 8.00
Fold selectivity for SST5 vs SST3 [2]: 16 fold
half-life at 1 μM [3]: 2.32 h
IC50 [4, 7]: > 10 µM
IC50 [4, 8]: > 10 µM
pEC50 [5]: > 8.00
Fold selectivity for SST5 vs SST2 [5]: + (+=10 to 99)
pEC50 [5, 9]: > 8.00

Cc1cc(-c2cncc(-c3nc4nccc(C)c4[nH]3)c2N2CC[C@](C)(N)C2)ccc1F [Compound 2-188, (3S)-1-[3-(4-fluoro-3-methylphenyl)-5-{7-methyl-1H-imidazo[4,5-b]pyridin-2-yl}pyridin-4-yl]-3-methylpyrrolidin-3-amine]
pEC50 [1]: 6.00 to 7.00
Fold selectivity for SST5 vs SST3 [2]: 16 fold
half-life at 1 μM [3]: 0.55 h
IC50 [4, 7]: > 10 µM
IC50 [4, 8]: 8.7 µM
pEC50 [5]: > 8.00
Fold selectivity for SST5 vs SST2 [5]: ++ (++=100 to 499)
pEC50 [5, 9]: > 8.00

COc1cc(-c2cncc(-c3nc4c(F)cccc4[nH]3)c2N2CC[C@](C)(N)C2)ccn1 [Compound 2-187, (3S)-1-[5-(4-fluoro-1H-1,3-benzodiazol-2-yl)-2′-methoxy-[3,4′-bipyridin]-4-yl]-3-methylpyrrolidin-3-amine]
pEC50 [1]: 6.00 to 7.00
Fold selectivity for SST5 vs SST3 [2]: 93 fold
half-life at 1 μM [3]: 0.683 h
IC50 [4, 7]: > 10 µM
IC50 [4, 8]: 2.9 µM
pEC50 [5]: > 8.00
Fold selectivity for SST5 vs SST2 [5]: ++ (++=100 to 499)
pEC50 [5, 9]: > 8.00

Cc1cc(-c2cncc(-c3nc4c(F)cccc4[nH]3)c2N2CC[C@](C)(N)C2)ccn1 [Compound 2-178, (3S)-1-[5-(4-fluoro-1H-1,3-benzodiazol-2-yl)-2′-methyl-[3,4′-bipyridin]-4-yl]-3-methylpyrrolidin-3-amine]
pEC50 [1]: < 6.00
Fold selectivity for SST5 vs SST3 [2]: 147 fold
half-life at 1 μM [3]: 3.85 h
IC50 [4, 7]: > 10 µM
IC50 [4, 8]: 9.7 µM
pEC50 [5]: > 8.00
Fold selectivity for SST5 vs SST2 [5]: ++ (++=100 to 499)
pEC50 [5, 9]: > 8.00

C[C@]1(N)CCN(c2c(-c3ccnc(C(F)(F)F)c3)cncc2-c2nc3c(F)cccc3[nH]2)C1 [Compound 2-186, (3S)-1-[5-(4-fluoro-1H-1,3-benzodiazol-2-yl)-2′-(trifluoromethyl)-[3,4′-bipyridin]-4-yl]-3-methylpyrrolidin-3-amine]
pEC50 [1]: 6.00 to 7.00
Fold selectivity for SST5 vs SST3 [2]: 158 fold
half-life at 1 μM [3]: 5.78 h
IC50 [4, 7]: 5.4 µM
IC50 [4, 8]: 1.1 µM
pEC50 [5]: > 8.00
Fold selectivity for SST5 vs SST2 [5]: +++ (+++=≥500)
pEC50 [5, 9]: > 8.00

C[C@]1(N)CCN(c2c(-c3cccc(C#N)c3)cncc2-c2nc3c(F)cccc3[nH]2)C1 [Compound 2-200, 3-{4-[(3S)-3-amino-3-methylpyrrolidin-1-yl]-5-(4-fluoro-1H-1,3-benzodiazol-2-yl)pyridin-3-yl}benzonitrile]
pEC50 [1]: 6.00 to 7.00
Fold selectivity for SST5 vs SST3 [2]: 159 fold
Fold selectivity for SST5 vs SST4 [6]: 136 fold
pEC50 [5]: > 8.00
Fold selectivity for SST5 vs SST2 [5]: +++ (+++=≥500)
pEC50 [5, 9]: > 8.00
